Data taken from patent US20040229246A1, “Diagnostic markers for therapeutic treatment” (Can-Fite Biopharam Ltd., priority 2002, published 2004).

Tests used:
[1] = system: A3AR; assay: RT-PCR detection of A3AR on human neutrophils; assay type: cell-based; settings: incubated for 15 minutes at 37° C.
Procedure: Tissue sections (5 μm thick) on slides that, stained by H&E were observed by a pathologist. The neoplastic area and the normal area were detected and each one marked separately. The neoplastic tissue and the normal tissue were collected to different microcentrifuge tubes. The samples were treated with proteinase K at a final concentration of 0.1 mg/ml and incubated at 37° C. for 1 hour to allow for […]. Cells lysate were heated to 95° C. for 15 minutes in order to inactivate DNase and proteinase K. Following centrifugation at 14,000 RPM for 5 minutes, 17 μl of the supernatant was transferred to separate tube and 4 μl of RT mixture. 5 mM dNTPs, 2.5 μM random hexamer, 5 U RNasin, 100 U SuperScript One Step RT-PCR with Platinum Taq (Invitrogene) were added.
The RT reaction was performed at 45° C. for 45 minutes. […]
10×10^6 neutrophil cells isolated from 20 ml of human blood were incubated for 15 minutes with […] of CF101 at 37° C. […] RNA level was quantified using spectrophotometer and […] from each sample were subjected to RT-PCR using SuperScript One Step RT-PCR with Platinum Taq (Invitrogene), as described above in section E., by using the set No II as primers for amplification of 361 bp fragment. RT-PCR products were detected by electrophoresis and the size was verified by comparing with known RNA. […]

[2] = target: T1, A3AR (Mus musculus, UniProt Q61618); assay: Immunostaining and confocal microscopy of A3AR localization in B16-F10 melanoma cells; assay type: cell-based
T1 construct: endogenous in cells; host or cells: B16-F10 melanoma cells
T1 sequence (Q61618 1-319): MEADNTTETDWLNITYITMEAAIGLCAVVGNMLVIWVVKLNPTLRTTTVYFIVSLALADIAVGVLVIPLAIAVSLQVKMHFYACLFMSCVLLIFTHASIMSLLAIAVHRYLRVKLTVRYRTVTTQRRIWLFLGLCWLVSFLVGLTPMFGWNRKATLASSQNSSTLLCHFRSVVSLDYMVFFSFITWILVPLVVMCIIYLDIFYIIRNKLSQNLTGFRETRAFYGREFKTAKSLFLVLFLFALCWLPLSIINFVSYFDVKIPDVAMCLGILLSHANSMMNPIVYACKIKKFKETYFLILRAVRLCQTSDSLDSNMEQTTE
Procedure: B16-F10 melanoma cells were grown for 24 hours on cover slips coated with Ploy-L-Lysine (500 μg/ml). Cells were fixed in 4% formaldehyde in phosphate-buffered saline (PBS) for 1 hour at room temperature. The fixed cells were rinsed three times for one min with PBS. To block nonspecific interaction of the antibodies, cells were incubated for 30 minutes in 4% normal goat serum (NGS) in PBS (1% bovine serum albumin (BSA), 0.1% Triton X-100). For the single labeling experiments, cells were then incubated with the primary antibodies against A3AR at a dilution of 1:1000 in PBS (1% BSA, 1% NGS, 0.1% Triton X-100) for 24 hours at 4° C. For the double labeling experiments, antibodies against the A2B adenosine receptor (A2BR) were added at a dilution of 1:1000 to the reaction mixture. After being washed three times for 3 minutes with PBS, cells were incubated with Cy3-conjugated anti-goat IgG for the single labeling experiment, and with both, Fluorescein-conjugated anti-rabbit IgG and Cy3 for the double labeling. Both antibodies were diluted to 1:250 in PBS and incubated in the dark for 2 hours. Cells were rinsed with PBS three more times and mounted with AM 100 (Chemicon, Ca). Stained cells were visualized by Confocal Microscope (Zeiss, Axiovert 100 M, excitation at 553 and emission at 560-615 nm for Cy3, and 492 and 520 nm, respectively, for Fluorescein).
To study receptor localization, confocal laser microscopy was utilized.
To further explore the time course kinetic of A3AR internalization, B16-F10 melanoma cells were exposed for different time periods to IB-MECA and confocal microscopy analysis was carried out. FIG. 2 depicts the gradual internalization rate that occurred within a few minutes, resulting in the disappearance of the fluorescence after 6 minutes. […] This was followed by internalization/externalization after longer incubation time periods (30 and 60 minutes). To confirm the observation that the fluorescence level is decreased as a result of internalization, optical sectioning of the cells was performed (data not shown). […] To show the specificity of A3AR localization, it was compared to that of the A2B adenosine receptor. […] Upon exposure of the cells to IB-MECA, the A2BR was masked by A3AR in the cytoplasm.

Compound: CNC(=O)[C@H]1O[C@@H](n2cnc3c(NCc4cccc(I)c4)ncnc32)[C@H](O)[C@@H]1O [IB-MECA, 1-deoxy-1-[6[[(3-iodophenyl)methyl]amino]-9H-purine-9-yl]-N-methyl-β-D-ribofura-nuronaminde]
- expression of A3AR (RT-PCR) [1]: increase
- time to disappearance of the A3AR fluorescence (internalization) ([2]; B16-F10 melanoma cells exposed to IB-MECA): 6 min
- A3AR fluorescence level on the cell surface ([2]; B16-F10 melanoma cells, IB-MECA treated, after 5 minutes): marked decrease
- A3AR localization, optical sectioning ([2]; B16-F10 melanoma cells, after 15 and 60 minutes' exposure): seen both in the cytoplasm and on the cell surface
- A3AR localization, optical sectioning ([2]; B16-F10 melanoma cells, exposure for 5 minutes): presented in the cytoplasm
- A3AR localization ([2]; B16-F10 melanoma cells, prolonged exposure (15 minutes)): receptor externalization to the cell surface
